Source: ChEMBL document CHEMBL3044609, “Synthesis and Acaricidal Activities of New 2-Polyfluorophenylbenzazole Derivatives” (2002)
≈ marks a conversion by molar mass, not a printed value. Calls of active or inactive are those of the source. No cut-off for these calls is given here.

What was measured:
Tetranychus urticae [1] = test: Acaricidal activity against kelthane-resitant strain Tetranychus urticae (two-spotted spider mite) in compound treated snap bean leaves assessed as egg mortality measured after 2 days by leaf disk method; type: functional; conditions: foliar, 48 h
Tetranychus urticae [2] = test: Ratio of LC50 for kelthane-resitant strain Tetranychus urticae (two-spotted spider mite) to LC50 for kelthane-sensitive strain Tetranychus urticae (two-spotted spider mite) assessed as egg mortality measured after 2 days by leaf disk method; type: functional
Tetranychus urticae [3] = test: Acaricidal activity against kelthane-sensitive strain Tetranychus urticae (two-spotted spider mite) in compound treated snap bean leaves assessed as egg mortality measured after 2 days by leaf disk method; type: functional; conditions: foliar, 48 h
Tetranychus urticae [4] = test: Ratio of LC50 for kelthane-resitant strain Tetranychus urticae (two-spotted spider mite) to LC50 for kelthane-sensitive strain Tetranychus urticae assessed as adult mortality measured after 2 days by leaf disk method; type: functional
Tetranychus urticae [5] = test: Acaricidal activity against kelthane-sensitive strain Tetranychus urticae (two-spotted spider mite) in compound treated snap bean leaves assessed as adult mortality measured after 2 days by leaf disk method; type: functional; conditions: foliar, 48 h
Tetranychus urticae [6] = test: Acaricidal activity against kelthane-resitant strain Tetranychus urticae (two-spotted spider mite) in compound treated snap bean leaves assessed as adult mortality measured after 2 days by leaf disk method; type: functional; conditions: foliar, 48 h
Tetranychus urticae [7] = test: Acaricidal activity against Tetranychus urticae (two-spotted spider mite) in compound treated snap bean leaves assessed as egg mortality measured after 2 days by leaf disk method; type: functional; conditions: foliar, 48 h
Tetranychus urticae [8] = test: Acaricidal activity against Tetranychus urticae (two-spotted spider mite) in compound treated snap bean leaves assessed as adult mortality measured after 2 days by leaf disk method; type: functional; conditions: foliar, 48 h
Tetranychus urticae [9] = test: Acaricidal activity against Tetranychus urticae (two-spotted spider mite) on strawberry plant assessed as average number of adult females mites at 1000 fold dilutions measured after 30 days (reference value: 100%); type: functional
Tetranychus urticae [10] = test: Acaricidal activity against Tetranychus urticae (two-spotted spider mite) on strawberry plant assessed as average number of adult females mites at 1000 fold dilutions measured after 3 days (reference value: 100%); type: functional
Tetranychus urticae [11] = test: Acaricidal activity against Tetranychus urticae (two-spotted spider mite) on strawberry plant assessed as average number of adult females mites at 1000 fold dilutions measured after 8 days (reference value: 100%); type: functional
Tetranychus urticae [12] = test: Acaricidal activity against Tetranychus urticae (two-spotted spider mite) on strawberry plant assessed as average number of adult females mites at 1000 fold dilutions measured after 23 days (reference value: 100%); type: functional
Tetranychus urticae [13] = test: Acaricidal activity against Tetranychus urticae (two-spotted spider mite) on strawberry plant assessed as average number of adult females mites at 1000 fold dilutions measured after 16 days (reference value: 100%); type: functional
Tetranychus urticae [14] = test: Acaricidal activity against Tetranychus urticae (two-spotted spider mite) on strawberry plant assessed as average number of adult females mites at 800 fold dilutions measured after 8 days (reference value: 100%); type: functional
Tetranychus urticae [15] = test: Acaricidal activity against Tetranychus urticae (two-spotted spider mite) on strawberry plant assessed as average number of adult females mites at 800 fold dilutions measured after 23 days (reference value: 100%); type: functional
Tetranychus urticae [16] = test: Acaricidal activity against Tetranychus urticae (two-spotted spider mite) on strawberry plant assessed as average number of adult females mites at 400 fold dilutions measured after 3 days (reference value: 100%); type: functional
Tetranychus urticae [17] = test: Acaricidal activity against Tetranychus urticae (two-spotted spider mite) on strawberry plant assessed as average number of adult females mites at 800 fold dilutions measured after 16 days (reference value: 100%); type: functional
Tetranychus urticae [18] = test: Acaricidal activity against Tetranychus urticae (two-spotted spider mite) on strawberry plant assessed as average number of adult females mites at 400 fold dilutions measured after 23 days (reference value: 100%); type: functional
Panonychus citri = test: Acaricidal activity against Panonychus citri in compound treated lemon leaf assessed as adult mortality; type: functional, organism-based
Tetranychus urticae [19] = test: Acaricidal activity against Tetranychus urticae (two-spotted spider mite) on strawberry plant assessed as average number of adult females mites at 400 fold dilutions measured after 8 days (reference value: 100%); type: functional
Tetranychus urticae [20] = test: Acaricidal activity against Tetranychus urticae (two-spotted spider mite) on strawberry plant assessed as average number of adult females mites at 800 fold dilutions measured after 30 days (reference value: 100%); type: functional
Tetranychus urticae [21] = test: Acaricidal activity against Tetranychus urticae (two-spotted spider mite) on strawberry plant assessed as average number of adult females mites at 800 fold dilutions measured after 3 days (reference value: 100%); type: functional
Tetranychus urticae [22] = test: Acaricidal activity against Tetranychus urticae (two-spotted spider mite) on strawberry plant assessed as average number of adult females mites at 400 fold dilutions measured after 30 days (reference value: 100%); type: functional
Tetranychus urticae [23] = test: Acaricidal activity against Tetranychus urticae (two-spotted spider mite) on strawberry plant assessed as average number of adult females mites at 400 fold dilutions measured after 16 days (reference value: 100%); type: functional

OC(c1ccc(Cl)cc1)(c1ccc(Cl)cc1)C(Cl)(Cl)Cl [DICOFOL]
LC50 (Tetranychus urticae [1]): 90.9 µg/mL (≈ 245 µM) | RatioLC50 (Tetranychus urticae [2]): 1.13 | LC50 (Tetranychus urticae [3]): 80.7 µg/mL (≈ 218 µM) | RatioLC50 (Tetranychus urticae [4]): 18.65 | LC50 (Tetranychus urticae [5]): 15.9 µg/mL (≈ 42.9 µM) | LC50 (Tetranychus urticae [6]): 296 µg/mL (≈ 800 µM)

c1ccc(-c2nc3ccccc3s2)cc1 [2-PHENYLBENZO[D]THIAZOLE]
LC50 (Tetranychus urticae [7]): > 500 µg/mL | LC50 (Tetranychus urticae [8]): 211 µg/mL (≈ 999 µM)

Cc1ccc2oc(-c3cc(F)c(F)cc3F)nc2c1
LC50 (Tetranychus urticae [7]): 173 µg/mL (≈ 657 µM) | LC50 (Tetranychus urticae [8]): 174 µg/mL (≈ 661 µM)

Fc1ccc(-c2nc3ccccc3s2)cc1F
LC50 (Tetranychus urticae [7]): > 500 µg/mL | LC50 (Tetranychus urticae [8]): < 125 µg/mL

Cc1ccc2oc(-c3ccc(F)cc3)nc2c1
LC50 (Tetranychus urticae [7]): > 500 µg/mL | LC50 (Tetranychus urticae [8]): > 500 µg/mL

Cc1ccc2nc(-c3cc(F)c(F)c(F)c3F)sc2c1
LC50 (Tetranychus urticae [7]): 205 µg/mL (≈ 690 µM) | LC50 (Tetranychus urticae [8]): 75 µg/mL (≈ 252 µM)

Fc1cc(-c2nc3cc(Cl)ccc3o2)c(F)c(Cl)c1F
LC50 (Tetranychus urticae [7]): 173 µg/mL (≈ 544 µM) | LC50 (Tetranychus urticae [8]): 37 µg/mL (≈ 116 µM)

Fc1cc(-c2nc3ccccc3o2)c(F)c(F)c1F
LC50 (Tetranychus urticae [7]): 351 µg/mL (≈ 1310 µM) | LC50 (Tetranychus urticae [8]): 151 µg/mL (≈ 565 µM)

c1ccc(-c2nc3ccccc3o2)cc1 [2-PHENYLBENZO[D]OXAZOLE]
LC50 (Tetranychus urticae [7]): > 500 µg/mL | LC50 (Tetranychus urticae [8]): > 500 µg/mL

Cc1ccc2oc(-c3cccc(F)c3)nc2c1
LC50 (Tetranychus urticae [7]): > 500 µg/mL | LC50 (Tetranychus urticae [8]): 383 µg/mL (≈ 1690 µM)

Cc1cc(C)c2oc(-c3cc(F)c(F)c(Cl)c3F)nc2c1
LC50 (Tetranychus urticae [7]): > 500 µg/mL | LC50 (Tetranychus urticae [8]): < 31 µg/mL

CCc1nn(C)c(C(=O)NCc2ccc(C(C)(C)C)cc2)c1Cl [TEBUFENPYRAD]
Activity (Tetranychus urticae [9]): 4.5% | Activity (Tetranychus urticae [10]): 4.3% | Activity (Tetranychus urticae [11]): 7.8% | Activity (Tetranychus urticae [12]): 13.5% | Activity (Tetranychus urticae [13]): 5.6%

Fc1cc(-c2nc3ccccc3s2)c(F)c(Cl)c1F
LC50 (Tetranychus urticae [7]): 225 µg/mL (≈ 751 µM) | LC50 (Tetranychus urticae [8]): 35 µg/mL (≈ 117 µM)

Cc1ccc2oc(-c3ccccc3F)nc2c1
LC50 (Tetranychus urticae [7]): > 500 µg/mL | LC50 (Tetranychus urticae [8]): 88 µg/mL (≈ 387 µM)

Fc1cc(-c2nc3cc(Cl)ccc3o2)c(F)c(F)c1F
LC50 (Tetranychus urticae [7]): 202 µg/mL (≈ 670 µM) | LC50 (Tetranychus urticae [8]): 100 µg/mL (≈ 332 µM)

Fc1cc(-c2nc3ccccc3o2)c(F)c(Cl)c1F
LC50 (Tetranychus urticae [7]): 257 µg/mL (≈ 906 µM) | LC50 (Tetranychus urticae [8]): 66 µg/mL (≈ 233 µM)

Cc1ccc2nc(-c3cc(F)c(F)c(Cl)c3F)oc2c1
LC50 (Tetranychus urticae [7]): > 500 µg/mL | LC50 (Tetranychus urticae [8]): 48 µg/mL (≈ 161 µM)

Fc1cc(-c2nc3ccc(Br)cc3s2)c(F)c(F)c1F
LC50 (Tetranychus urticae [7]): 555 µg/mL (≈ 1530 µM) | LC50 (Tetranychus urticae [8]): 93 µg/mL (≈ 257 µM)

Cc1ccc2nc(-c3cc(F)c(F)c(Cl)c3F)sc2c1
LC50 (Tetranychus urticae [7]): 287 µg/mL (≈ 915 µM) | LC50 (Tetranychus urticae [8]): 155 µg/mL (≈ 494 µM)

Cc1ccc2oc(-c3ccccc3)nc2c1
LC50 (Tetranychus urticae [7]): > 500 µg/mL | LC50 (Tetranychus urticae [8]): > 500 µg/mL

Cc1ccc2oc(-c3cc(F)c(F)c(F)c3F)nc2c1
LC50 (Tetranychus urticae [7]): > 500 µg/mL | LC50 (Tetranychus urticae [8]): 19 µg/mL (≈ 67.6 µM)

Fc1cc(-c2nc3ccccc3s2)c(F)c(F)c1F
LC50 (Tetranychus urticae [7]): 205 µg/mL (≈ 724 µM) | LC50 (Tetranychus urticae [8]): 102 µg/mL (≈ 360 µM)

Cc1ccc2oc(-c3cc(F)c(F)c(Cl)c3F)nc2c1
Activity (Tetranychus urticae [14]): 86.5% | LC50 (Tetranychus urticae [1]): 17.1 µg/mL (≈ 57.4 µM) | LC50 (Tetranychus urticae [7]): 154 µg/mL (≈ 517 µM) | Activity (Tetranychus urticae [15]): 51.4% | Activity (Tetranychus urticae [16]): 93.3% | Activity (Tetranychus urticae [17]): 75.3% | Activity (Tetranychus urticae [18]): 38.9% | Activity (Panonychus citri): Active | RatioLC50 (Tetranychus urticae [2]): 0.84 | LC50 (Tetranychus urticae [8]): 35 µg/mL (≈ 118 µM) | LC50 (Tetranychus urticae [3]): 20.4 µg/mL (≈ 68.5 µM) | Activity (Tetranychus urticae [19]): 108.8% | Activity (Tetranychus urticae [20]): 65% | RatioLC50 (Tetranychus urticae [4]): 1.69 | LC50 (Tetranychus urticae [5]): 71.6 µg/mL (≈ 241 µM) | LC50 (Tetranychus urticae [6]): 121 µg/mL (≈ 406 µM) | Activity (Tetranychus urticae [21]): 93.7% | Activity (Tetranychus urticae [22]): 43.9% | Activity (Tetranychus urticae [23]): 71.1%

Fc1c(F)c(F)c(-c2nc3ccccc3s2)c(F)c1F [2-(PERFLUOROPHENYL)BENZO[D]THIAZOLE]
LC50 (Tetranychus urticae [7]): 124 µg/mL (≈ 412 µM) | LC50 (Tetranychus urticae [8]): 26 µg/mL (≈ 86.3 µM)
